# In patent US11191743B2, “Modulators of zinc activated cation channel” (Dignity Health, priority 2016, dated 2021):
# “Also recorded” adds a separate entry of the source. Where two headings read alike, the source gives them in different places.
# How the values were obtained:
# ZACN [1] = target: T1, ZACN (Homo sapiens, UniProt Q401N2); experiment: Two-electrode voltage-clamp, ZACN expressed in Xenopus laevis oocytes: inhibition or modulation of spontaneous, zinc-activated and suramin-activated current; assay type: cell-based; set-up: host or cells: Xenopus laevis oocytes injected with cRNA (pGEMHE vector, T7 transcript); conditions: for mode of antagonism: IC50 at 500 μM vs 2 mM Zn2+
# T1 sequence (Q401N2 26-412): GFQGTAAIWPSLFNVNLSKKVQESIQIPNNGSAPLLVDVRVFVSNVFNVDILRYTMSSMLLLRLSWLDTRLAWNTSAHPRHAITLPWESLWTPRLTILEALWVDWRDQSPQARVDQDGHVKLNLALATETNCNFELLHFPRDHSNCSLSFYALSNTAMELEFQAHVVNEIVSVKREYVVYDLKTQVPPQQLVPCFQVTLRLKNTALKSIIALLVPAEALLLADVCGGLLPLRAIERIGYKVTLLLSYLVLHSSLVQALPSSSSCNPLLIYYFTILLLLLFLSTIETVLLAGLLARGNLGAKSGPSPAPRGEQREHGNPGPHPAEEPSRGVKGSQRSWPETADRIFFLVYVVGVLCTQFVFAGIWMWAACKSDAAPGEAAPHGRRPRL
# Experimental: Stage IV oocytes from Xenopus laevis were injected with Ing of ZACN human mRNA. Prior to recording, oocytes were incubated in the oocyte Ringer's Solution (OR2) with 10 μM D-tubocurarine to inhibit spontaneous channel opening. The oocytes were incubated at 14° C. for three to five days following mRNA injection before recording with two-electrode voltage-clamp. […] Current levels in response to drug applications were normalized to the response to the same concentration of zinc in the absence of the drug. Peak current inhibitions were fitted to the Hill equation to derive IC50 values.
# (§1) The cDNA encoding wild type, human ZACN was purchased from OpenBiosystems, and cloned into the pGEMHE vector in the T7 orientation. For cRNA synthesis, cDNA templates were PCR amplified using primers that cover the M13 forward and reverse regions and high fidelity Phusion DNA polymerase (New England Biolab, Ipswich, Mass., USA). PCR products were then purified and served as templates for cRNA synthesis. cRNAs were transcribed by T7 RNA polymerase (Promega, Madison, Wis., USA) using standard in vitro transcription protocols. After digestion of the DNA template by RNase-free DNase I, cRNAs were purified and resuspended in diethyl pyrocarbonate (DEPC)-treated water. cRNA integrity was examined on a 1% agarose gel, and cRNA concentration was determined by optical density measurements at 260 nm using an Eppendorf Biophotometer.
# (§2) Oocytes were harvested from female Xenopus laevis (Xenopus I, Ann Arbor, Mich., USA), using the protocol “Xenopus Care and Use” approved by the Institutional Animal Care and Use Committee of the St. Joseph's Hospital and Medical Center. Stage VI oocytes were selected and incubated at 16° C. before injection. Micropipettes for injection were pulled from borosilicate glass (Drummond Scientific, Broomall, Pa., USA) on a Sutter P87 horizontal puller, and the tips were cut with forceps to ≈40 μm in diameter. cRNAs encoding ZACN was drawn up into the micropipette and injected into oocytes with a Nanoject micro-injection system (Drummond Scientific) in a total volume of ˜60 nl and total cRNA of ˜20 ng for each oocyte.
# (§3) ValveLink 16 computer-controlled perfusion system was used to switch solutions between the OR2 and a test solution. The perfusion chamber was grounded through an agar salt bridge to avoid alterations in junction potential between the Ag/AgCl grounding electrode and solution when solution/drug changes occurred. Oocytes were voltage-clamped at −70 mV to measure agonist-induced currents using an AxoClamp 900A amplifier (Axon Instruments, Foster City, Calif., USA). The current signal was low-pass filtered at 20 Hz with the built-in 4-pole low-pass Bessel filter and digitized at 100 Hz with a Digidata1440a and pClamp 10 software (Molecular Devices).
# (§4) For each oocyte, concentration-inhibition curves for drug-induced inhibition of zinc-activated current responses or concentration response curves for agonist-induced current of the ZACN were fit to the Hill equation using least squares methods (Prism 6.0, GraphPad Software, Inc., San Diego, Calif., USA) to derive IC50 or EC50 values (the concentration required for inducing a half maximal current), Hill coefficients (the slope factor), and maximum current levels in absolute terms. Current levels in each oocyte were normalized to the maximum current in the absence of the inhibitor, allowing normalized data to be averaged across multiple oocytes and to be fit again to the Hill equation. All data are presented as mean±SEM (standard error).
# ZACN [2] = target: T1, ZACN; experiment: Two-electrode voltage-clamp, ZACN expressed in Xenopus laevis oocytes: agonist-induced current; assay type: cell-based; set-up: host or cells: Xenopus laevis oocytes injected with cRNA (pGEMHE vector, T7 transcript)
# Source text: as §1, §2
# as §3, with “Two to 5 days after injection, oocytes expressing ZACN were placed in a home-made, small volume chamber and a 16-channel manifold, continuously perfused with oocyte Ringer's solution (OR2), which consisted of (in mM) 92.5 NaCl, 2.5 KCl, 1 CaCl2, 1 MgCl2 and 5 HEPES, pH 7.5. ValveLink” for “ValveLink”
# as §4
Compound,antagonist activity on human ZACN (ZACN [1]),agonist activity on human ZACN (words) (ZACN [2]),also measured
CN(C)c1ccc2nc3ccc(=[N+](C)C)cc-3sc2c1 [methylene blue],antagonists,,"high sensitivity component of antagonism, concentration range (ZACN [1]): nano-molar range; low sensitivity form of antagonism, concentration range (ZACN [1]): micromolar range"
CNCC[C@@H](Oc1ccccc1C)c1ccccc1 [tomoxetine],acted as antagonists,,IC50s relative to clinical concentrations (ZACN [1]): clinically relevant concentrations; relative potency / IC50 for the Zn2+-induced current among seven tested antidepressants (ZACN [1]): lower IC50 values; mode of antagonism (ZACN [1]): non-competitive; relative potency / IC50 for the Zn2+-induced current among seven tested antidepressants (ZACN [1]; listed as tomoxentine): most potent antagonists
CN1CCN2c3ccccc3Cc3ccccc3C2C1 (centres unmarked) [mianserin],acted as antagonists,,mode of antagonism (ZACN [1]): non-competitive
Cc1cc2nc3ccc(N(C)C)cc3[s+]c2cc1N.[Cl-] [toluidine blue],antagonists,,"high sensitivity component of antagonism, concentration range (ZACN [1]): nano-molar range; low sensitivity form of antagonism, concentration range (ZACN [1]): micromolar range"
Cc1cc(-c2ccc(/N=N/c3ccc4c(S(=O)(=O)O)cc(S(=O)(=O)O)c(N)c4c3O)c(C)c2)ccc1/N=N/c1ccc2c(S(=O)(=O)O)cc(S(=O)(=O)O)c(N)c2c1O [Evans blue],,agonists; also recorded: efficacious agonist,
O=C(Nc1ccc(C(=O)Nc2ccc(C(=O)Nc3ccc(S(=O)(=O)O)c4cc(S(=O)(=O)O)cc(S(=O)(=O)O)c34)cc2)cc1)Nc1ccc(C(=O)Nc2ccc(C(=O)Nc3ccc(S(=O)(=O)O)c4cc(S(=O)(=O)O)cc(S(=O)(=O)O)c34)cc2)cc1 [NF-279],,agonists; also recorded: efficacious agonist,
brilliant blue,,activate the human ZACN,
O=C(Nc1cccc(C(=O)Nc2ccc(S(=O)(=O)O)c3cc(S(=O)(=O)O)cc(S(=O)(=O)O)c23)c1)Nc1cccc(C(=O)Nc2ccc(S(=O)(=O)O)c3cc(S(=O)(=O)O)cc(S(=O)(=O)O)c23)c1 [NF-023],,agonist,
Cc1cc2nc3ccc(N(C)C)cc3nc2cc1N.Cl [neutral red],antagonists,,"high sensitivity component of antagonism, concentration range (ZACN [1]): nano-molar range; low sensitivity form of antagonism, concentration range (ZACN [1]): micromolar range"
O=C(Nc1cc(C(=O)Nc2ccc(S(=O)(=O)O)cc2)cc(C(=O)Nc2ccc(S(=O)(=O)O)cc2)c1)Nc1cc(C(=O)Nc2ccc(S(=O)(=O)O)cc2)cc(C(=O)Nc2ccc(S(=O)(=O)O)cc2)c1 [NF-110],,agonist,
Cc1cc(-c2ccc(/N=N/c3c(S(=O)(=O)O)cc4cc(S(=O)(=O)O)cc(N)c4c3O)c(C)c2)ccc1/N=N/c1c(S(=O)(=O)O)cc2cc(S(=O)(=O)O)cc(N)c2c1O [Trypan blue],,agonists; also recorded: efficacious agonist,
CNCCC(Oc1ccc(C(F)(F)F)cc1)c1ccccc1 (centres unmarked) [fluoxetine],acted as antagonists,,mode of antagonism (ZACN [1]): non-competitive
heparin,,agonist,
O=C(Nc1cccc(C(=O)Nc2cc(C(=O)Nc3ccc(S(=O)(=O)O)c4cc(S(=O)(=O)O)cc(S(=O)(=O)O)c34)ccc2F)c1)Nc1cccc(C(=O)Nc2cc(C(=O)Nc3ccc(S(=O)(=O)O)c4cc(S(=O)(=O)O)cc(S(=O)(=O)O)c34)ccc2F)c1 [NF-157],,efficacious agonist,agonist activity on human ZACN (words) (ZACN [2]; listed as NF157): agonists
pentosan polysulfate,,agonist of the human ZACN with high efficacy,agonist activity on human ZACN (words) (ZACN [2]; listed as pentosane polysulfate): agonist
Nc1ncnc2c1ncn2[C@@H]1O[C@H](COP(=O)(O)OP(=O)(O)OP(=O)(O)O)[C@@H](O)[C@H]1O [ATP],inhibitor,,effect on spontaneous current / spontaneous opening (ZACN [1]): inhibits; effect on suramin-activated current (ZACN [1]): positive allosteric modulator; also recorded: potentiates; effect on zinc-activated current (ZACN [1]): antagonist; also recorded: inhibits
O=C(Nc1cc(C(=O)Nc2ccc(S(=O)(=O)O)cc2S(=O)(=O)O)cc(C(=O)Nc2ccc(S(=O)(=O)O)cc2S(=O)(=O)O)c1)Nc1cc(C(=O)Nc2ccc(S(=O)(=O)O)cc2S(=O)(=O)O)cc(C(=O)Nc2ccc(S(=O)(=O)O)cc2S(=O)(=O)O)c1 [NF-449],,agonist,concentration at which the small high sensitivity component is saturated (ZACN [2]): 1 µM
O=S1(=O)OC(c2cc(Br)c(O)c(Br)c2)(c2cc(Br)c(O)c(Br)c2)c2ccccc21 [bromophenol blue],,activate the human ZACN,
Cc1c(C2(c3cc(C(C)C)c(O)c(Br)c3C)OS(=O)(=O)c3ccccc32)cc(C(C)C)c(O)c1Br [bromothymol blue],,activate the human ZACN,
COc1cc(-c2ccc(/N=N/c3ccc4c(S(=O)(=O)O)cc(S(=O)(=O)O)c(N)c4c3O)c(OC)c2)ccc1/N=N/c1ccc2c(S(=O)(=O)O)cc(S(=O)(=O)O)c(N)c2c1O [Chicago sky blue],,activate the human ZACN,
CN(C)CCC=C1c2ccccc2COc2ccccc21 [doxepin],acted as antagonists,,mode of antagonism (ZACN [1]): non-competitive
CNCCCN1c2ccccc2CCc2ccccc21 [desipramine],acted as antagonists,,IC50s relative to clinical concentrations (ZACN [1]): clinically relevant concentrations; relative potency / IC50 for the Zn2+-induced current among seven tested antidepressants (ZACN [1]): lower IC50 values; mode of antagonism (ZACN [1]): non-competitive; relative potency / IC50 for the Zn2+-induced current among seven tested antidepressants (ZACN [1]; listed as desipranine): most potent antagonists
CCOc1ccccc1OC(c1ccccc1)C1CNCCO1 (centres unmarked) [reboxetine],acted as antagonists,,mode of antagonism (ZACN [1]): non-competitive
Cc1ccc(C(=O)Nc2ccc(S(=O)(=O)O)c3cc(S(=O)(=O)O)cc(S(=O)(=O)O)c23)cc1NC(=O)c1cccc(NC(=O)Nc2cccc(C(=O)Nc3cc(C(=O)Nc4ccc(S(=O)(=O)O)c5cc(S(=O)(=O)O)cc(S(=O)(=O)O)c45)ccc3C)c2)c1 [suramin],,agonists; also recorded: efficacious agonist,
COc1ccc(C(CN(C)C)C2(O)CCCCC2)cc1 (centres unmarked) [venlafaxine],acted as antagonists,,mode of antagonism (ZACN [1]): non-competitive
